# Like-named read-outs stand apart in the source and are kept apart here.
# Legend:
# [1] = target: memapsin 2 (Homo sapiens, UniProt P56817); assay: Inhibition of memapsin 2 catalytic activity (Ki); assay type: biochemical; settings: memapsin 2, pH 4, 37° C.
# Procedure: Potency of compounds were determined by measurement of their inhibition of memapsin 2 catalytic activity toward a fluorescent substrate. […] Briefly, assays were performed at pH 4, 37° C., by pre-incubation of memapsin 2 enzyme with compound for 20 minutes. Activity measure was initiated by addition of a fluorogenic substrate FS-2 (Bachem Americas, Torrance, Calif.). Fluorescent signal increase over time was measured as a rate of hydrolysis of the peptide substrate. […]
# [2] = system: Aβ production in Chinese hamster ovary cells that over-express human APP695 with the London and Swedish mutations; assay: Cellular Aβ IC50 determination (Aβ40 sandwich ELISA); settings: Cricetulus griseus, CHO, 24 h
# Procedure: The potency of compounds against memapsin 2 catalytic activity was determined in a cellular assay of Aβ production. […] Compounds are dissolved in DMSO to concentrations near 1 mM, and diluted into culture media to a final concentration near 4 μM (final 0.4% DMSO). Compounds were diluted serially and applied to cells in multi-well plates 48 h after seeding. Incubation was continued in 5% CO2 at 37 degrees C. for 24 h. Aliquots were removed and assayed for Aβ40 content using a sandwich ELISA (BioSource International). Amount of Aβ40 over the range of concentration of compounds, relative to control incubations, were fit to a 4-parameter IC50 model.
# [3] = read-out: Cell, Aβ40, CHO cells over-expressing human APP695 (London and Swedish mutations), 24 h
# Chain of memapsin 2 (P56817 46-501): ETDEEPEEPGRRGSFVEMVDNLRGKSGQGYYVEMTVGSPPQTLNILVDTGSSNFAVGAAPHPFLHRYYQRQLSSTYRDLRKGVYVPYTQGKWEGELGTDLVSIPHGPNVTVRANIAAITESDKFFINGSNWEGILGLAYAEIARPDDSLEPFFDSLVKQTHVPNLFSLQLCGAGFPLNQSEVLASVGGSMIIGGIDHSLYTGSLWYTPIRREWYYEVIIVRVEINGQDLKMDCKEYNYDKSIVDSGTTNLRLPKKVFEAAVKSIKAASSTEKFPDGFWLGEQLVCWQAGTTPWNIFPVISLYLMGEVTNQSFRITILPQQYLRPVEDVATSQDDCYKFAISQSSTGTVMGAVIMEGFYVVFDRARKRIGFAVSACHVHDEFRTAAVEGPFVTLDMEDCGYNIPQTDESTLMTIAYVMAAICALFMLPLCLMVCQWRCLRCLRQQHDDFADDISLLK
Compound,Ki ([1]; read-out: M2K) [nM],"IC50 [2, 3] [nM]",IC50 ([2]; read-out: Cell) [nM],Ki ([1]; M2K) [nM]
COC1CCCC(CNCC(O)C(Cc2ccccc2)NC(=O)c2cc(C(=O)NC(C)c3ccccc3)cc(N(C)S(C)(=O)=O)c2)C1 (stereo not shown) [N1-(3-hydroxy-4-((3-methoxycyclohexyl)methylamino)-1-phenylbutan-2-yl)-5-(N-methylmethylsulfonamido)-N3-(1-phenylethyl)isophthalamide],> 501,1000 to 5000,,
COc1cccc(CNCC(O)C(Cc2ccccc2)NC(=O)c2cc(C(=O)N(C)Cc3nc(C)cs3)cc([N+](=O)[O-])c2)c1 (stereo not shown) [N1-(3-hydroxy-4-(3-methoxybenzylamino)-1-phenylbutan-2-yl)-N3-methyl-N3-((4-methylthiazol-2-yl)methyl)-5-nitroisophthalamide],< 300,< 1000,,
Cc1csc(CN(C)C(=O)c2cccc(C(=O)NC(Cc3ccccc3)C(O)CNCc3cncc(OCC(C)C)c3)c2)n1 (stereo not shown) [N1-(3-hydroxy-4-((5-isobutoxypyridin-3-yl)methylamino)-1-phenylbutan-2-yl)-N3-methyl-N3-((4-methylthiazol-2-yl)methyl)isophthalamide],< 300,< 1000,,
CCOc1cncc(CNCC(O)C(Cc2ccccc2)NC(=O)c2cccc(C(=O)N(C)Cc3nc(C)cs3)c2)c1 (stereo not shown) [N1-(4-((5-ethoxypyridin-3-yl)methylamino)-3-hydroxy-1-phenylbutan-2-yl)-N3-methyl-N3-((4-methylthiazol-2-yl)methyl)isophthalamide],< 300,< 1000,,
CCN(Cc1nc(C)cs1)C(=O)c1cccc(C(=O)NC(Cc2ccccc2)C(O)CNCc2cccc(OC)c2)c1 (stereo not shown) [N1-ethyl-N3-(3-hydroxy-4-(3-methoxybenzylamino)-1-phenylbutan-2-yl)-N1-((4-methylthiazol-2-yl)methyl)isophthalamide],< 300,< 1000,,
Cc1csc(CN(C)C(=O)c2cccc(C(=O)NC(Cc3ccccc3)C(O)CNCc3cccc(OC(F)(F)F)c3)c2)n1 (stereo not shown) [N1-(3-hydroxy-1-phenyl-4-(3-(trifluoromethoxy)benzylamino)butan-2-yl)-N3-methyl-N3-((4-methylthiazol-2-yl)methyl)isophthalamide],< 300,< 1000,,
COc1cncc(CNCC(O)C(Cc2ccccc2)NC(=O)c2cccc(C(=O)N(C)Cc3nc(C)cs3)c2)c1 (stereo not shown) [N1-(3-hydroxy-4-((5-methoxypyridin-3-yl)methylamino)-1-phenylbutan-2-yl)-N3-methyl-N3-((4-methylthiazol-2-yl)methyl)isophthalamide],< 300,< 1000,,
COc1ccc(CNCC(O)C(Cc2ccccc2)NC(=O)c2cccc(C(=O)N(C)Cc3nc(C)cs3)c2)cc1 (stereo not shown) [N1-(3-hydroxy-4-(4-methoxybenzylamino)-1-phenylbutan-2-yl)-N3-methyl-N3-((4-methylthiazol-2-yl)methyl)isophthalamide],> 501,1000 to 5000,,
"CC(NC(=O)c1cc(C(=O)NC(Cc2ccccc2)C(O)CNCc2ccc3c(c2)OCO3)cc(N(C)S(C)(=O)=O)c1)c1ccccc1 (stereo not shown) [N1-(4-(benzo[d][1,3]dioxol-5-ylmethylamino)-3-hydroxy-1-phenylbutan-2-yl)-5-(N-methylmethylsulfonamido)-N3-(1-phenylethyl)isophthalamide]",< 300,< 1000,,
CC(NC(=O)c1cc(C(=O)NC(Cc2ccccc2)C(O)CNCc2nccn2COCC[Si](C)(C)C)cc(N(C)S(C)(=O)=O)c1)c1ccccc1 (stereo not shown) [N1-(3-hydroxy-1-phenyl-4-((1-((2-(trimethylsilyl)ethoxy)methyl)-1H-imidazol-2-yl)methylamino)butan-2-yl)-5-(N-methylmethylsulfonamido)-N3-(1-phenylethyl)isophthalamide],301 to 500,,> 5000,
COc1cccc(CNCC(O)C(Cc2ccccc2)NC(=O)c2cc(C(=O)NC(C)c3nccs3)cc(N(C)S(C)(=O)=O)c2)c1 (stereo not shown) [N1-(3-hydroxy-4-(3-methoxybenzylamino)-1-phenylbutan-2-yl)-5-(N-methylmethylsulfonamido)-N3-(1-(thiazol-2-yl)ethyl)isophthalamide],< 300,< 1000,,
COc1cccc(CN2CCC(CNCC(O)C(Cc3ccccc3)NC(=O)c3cc(C(=O)NC(C)c4ccccc4)cc(N(C)S(C)(=O)=O)c3)CC2)c1 (stereo not shown) [N1-(3-hydroxy-4-((1-(3-methoxybenzyl)piperidin-4-yl)methylamino)-1-phenylbutan-2-yl)-5-(N-methylmethylsulfonamido)-N3-(1-phenylethyl)isophthalamide],> 501,> 5000,,
COc1ccc(S(=O)(=O)NCC(O)C(Cc2ccccc2)NC(=O)c2cc(C(=O)NC(C)c3ccccc3)cc(N(C)S(C)(=O)=O)c2)cc1 (stereo not shown) [N1-(3-hydroxy-4-(4-methoxyphenylsulfonamido)-1-phenylbutan-2-yl)-5-(N-methylmethylsulfonamido)-N3-(1-phenylethyl)isophthalamide],> 501,1000 to 5000,,
CC(NC(=O)c1cc(C(=O)NC(Cc2ccccc2)C(O)CNCc2c[nH]cn2)cc(N(C)S(C)(=O)=O)c1)c1ccccc1 (stereo not shown) [N1-(4-((1H-imidazol-4-yl)methylamino)-3-hydroxy-1-phenylbutan-2-yl)-5-(N-methylmethylsulfonamido)-N3-(1-phenylethyl)isophthalamide],301 to 500,1000 to 5000,,
C#Cc1cccc(CNCC(O)C(Cc2ccccc2)NC(=O)c2cccc(C(=O)N(C)Cc3nc(C)cs3)c2)c1 (stereo not shown) [N1-(4-(3-ethynylbenzylamino)-3-hydroxy-1-phenylbutan-2-yl)-N3-methyl-N3-((4-methylthiazol-2-yl)methyl)isophthalamide],< 300,< 1000,,
Cc1csc(C(C)NCC(O)C(Cc2ccccc2)NC(=O)c2cc(C(=O)NC(C)c3ccccc3)cc(N(C)S(C)(=O)=O)c2)n1 (stereo not shown) [N1-(3-hydroxy-4-(1-(4-methylthiazol-2-yl)ethylamino)-1-phenylbutan-2-yl)-5-(N-methylmethylsulfonamido)-N3-(1-phenylethyl)isophthalamide],< 300,< 1000,,
CC(NC(=O)c1cc(C(=O)NC(Cc2ccccc2)C(O)CNCC2CCCN2C)cc(N(C)S(C)(=O)=O)c1)c1ccccc1 (stereo not shown) [N1-(3-hydroxy-4-((1-methylpyrrolidin-2-yl)methylamino)-1-phenylbutan-2-yl)-5-(N-methylmethylsulfonamido)-N3-(1-phenylethyl)isophthalamide],> 501,> 5000,,
COc1cccc(CNCC(O)C(Cc2ccccc2)NC(=O)c2cccc(C(=O)N(C)Cc3nc(C)co3)c2)c1 (stereo not shown) [N1-(3-hydroxy-4-(3-methoxybenzylamino)-1-phenylbutan-2-yl)-N3-methyl-N3-((4-methyloxazol-2-yl)methyl)isophthalamide],,,< 1000,< 300
COc1cccc(CNCC(O)C(Cc2ccccc2)NC(=O)c2cc(CS(C)(=O)=O)cc(C(=O)NC(C)c3ccccc3)c2)c1 (stereo not shown) [N1-(3-hydroxy-4-(3-methoxybenzylamino)-1-phenylbutan-2-yl)-5-(methylsulfonylmethyl)-N3-(1-phenylethyl)isophthalamide],< 300,< 1000,,
C#Cc1cccc(CNCC(O)C(Cc2ccccc2)NC(=O)c2cc(C(=O)NC(C)c3ccccc3)cc(N(C)S(C)(=O)=O)c2)c1 (stereo not shown) [N1-(4-(3-ethynylbenzylamino)-3-hydroxy-1-phenylbutan-2-yl)-5-(N-methylmethylsulfonamido)-N3-(1-phenylethyl)isophthalamide],< 300,< 1000,,

# Reference: patent US7504420B2, “Compounds which inhibit beta-secretase activity and methods of use” (CoMentis, Inc., priority 2005, dated 2009)
